Each block holds one compound with its values, some of them ahead of it.
How the values were obtained:
[1] = Ratio of uptake of [GD] in bone 1 hr post injection with 0.01 to that of blood; type: functional
[2] = Ratio of uptake of [GD] in bone 1 hr post injection with 0.05 to that of muscle; type: functional
Rattus norvegicus [3] = species: Rattus norvegicus; experiment: Uptake of [GD] in bone 1 hr post injection with 0.05 of the compound; type: functional, Bone element
[4] = Uptake of [GD] in bone 1 hr post injection with 0.01 to that of muscle; type: functional, Muscle tissue
Rattus norvegicus [5] = species: Rattus norvegicus; experiment: Uptake of [GD] in bone 1 h post injection with 0.01 of the compound; type: functional, Bone element
[6] = Ratio of uptake of [GD] in bone 1 hr post injection with 0.10 to that of blood; type: functional
Rattus norvegicus [7] = species: Rattus norvegicus; experiment: Uptake of [GD] in bone 1 hr post injection with 0.10 of the compound; type: functional, Bone element
[8] = Ratio of uptake of [GD] in bone 1 hr post injection with 0.05 to that of blood; type: functional
[9] = Ratio of uptake of [GD] in bone 1 hr post injection with 0.10 to that of muscle; type: functional
[10] = Ratio of uptake of [GD] in bone 1 hr post injection with 0.002 to that of blood; type: functional
[11] = Ratio of uptake of [GD] in bone 1 hr post injection with 0.002 to that of muscle; type: functional
Rattus norvegicus [12] = species: Rattus norvegicus; experiment: Uptake of [GD] in bone 1 hr post injection with NCA GD dose; type: functional, Bone element
[13] = Ration of Uptake of [GD] in bone 1 hr post injection with NCA GD dose to that of muscle; type: functional
Rattus norvegicus [14] = species: Rattus norvegicus; experiment: Biodistribution in rat spleen in the presence of NCAGd/0.01 M lig; type: ADME, organism-based; details: in vivo
Rattus norvegicus [15] = species: Rattus norvegicus; experiment: Uptake of [GD] in bone 1 hr post injection with 0.002 of the compound; type: functional, Bone element
Rattus norvegicus [16] = species: Rattus norvegicus; experiment: Biodistribution in rat heart in the presence of NCAGd/0.01 M lig; type: ADME, organism-based; details: in vivo
Rattus norvegicus [17] = species: Rattus norvegicus; experiment: Biodistribution in rat liver by in the presence of NCAGd/0.01 M lig; type: ADME, organism-based; details: in vivo
[18] = Ratio of uptake of [GD] in bone 1 hr post injection with NCA GD dose to that of blood; type: functional
[19] = Ratio of uptake of [GD] in bone 1 hr post injection with 0.0005 to that of blood; type: functional
[20] = Ratio of uptake of [GD] in bone 1 hr post injection with 0.005 to that of muscle; type: functional
Rattus norvegicus [21] = species: Rattus norvegicus; experiment: Uptake of [GD] in bone 1 hr post injection with 0.005 of the compound; type: functional, Bone element
Rattus norvegicus [22] = species: Rattus norvegicus; experiment: Biodistribution in rat muscle in the presence of NCAGd/0.01 M lig; type: ADME, organism-based, Muscle tissue; details: in vivo
[23] = Ratio of uptake of [GD] in bone 1 hr post injection with 0.0005 to that of muscle; type: functional
Rattus norvegicus [24] = species: Rattus norvegicus; experiment: Biodistribution in rat blood in the presence of NCAGd/0.01 M lig; type: ADME, organism-based; details: in vivo
Rattus norvegicus [25] = species: Rattus norvegicus; experiment: Biodistribution in rat kidney in the presence of NCAGd/0.01 M lig; type: ADME, organism-based; details: in vivo
[26] = Ratio of uptake of [GD] in bone 1 hr post injection with 0.005 to that of blood; type: functional
Rattus norvegicus [27] = species: Rattus norvegicus; experiment: Biodistribution in rat bone in the presence of NCAGd/0.01 M lig; type: ADME, organism-based, Bone element; details: in vivo
Rattus norvegicus [28] = species: Rattus norvegicus; experiment: Uptake of [GD] in bone 1 hr post injection with 0.0005 of the compound; type: functional, Bone element
[29] = Ratio of uptake of [GD] in bone 1 hr post injection with 0.01 to that of muscle; type: functional
[30] = Ratio of uptake of [GD] in bone 1 hr post injection with 0.01 (N) to that of blood
Rattus norvegicus [31] = species: Rattus norvegicus; experiment: Uptake of [GD] in bone 1 hr post injection with 0.01 (N) of the compound
[32] = Ratio of uptake of [GD] in bone 1 hr post injection with 0.01 (N) to that of muscle

Compound: O=C(O)CN(CCN(CC(=O)O)CC(=O)O)CCN(CC(=O)O)CC(=O)NCCCP(=O)(O)OP(=O)(O)O
Ratio [1]: 2.12 | Ratio [2]: 3.38 | ID (Rattus norvegicus [3]): 17.6% | Ratio [4]: 5.39 | ID (Rattus norvegicus [5]): 22.9% | Ratio [6]: 8.56 | ID (Rattus norvegicus [7]): 13.7% | Ratio [8]: 6.42 | Ratio [9]: 2.76

ID/organ (Rattus norvegicus [14]): 0.44% | ID/organ (Rattus norvegicus [16]): 0.295% | ID/organ (Rattus norvegicus [17]): 28.5% | ID/organ (Rattus norvegicus [22]): 5.85% | ID/organ (Rattus norvegicus [24]): 3.12% | ID/organ (Rattus norvegicus [25]): 2.87% | ID/organ (Rattus norvegicus [27]): 51.4%
Compound: CC(O)C(C)NCCNC(C)C(C)O (stereo unspecified)
Ratio [10]: 0.206% | Ratio [11]: 1.81% | ID (Rattus norvegicus [12]): 51.4% | Ratio [13]: 8.81% | ID (Rattus norvegicus [15]): 6.9% | Ratio [18]: 16.5% | Ratio [19]: 0.234% | Ratio [20]: 1.67% | ID (Rattus norvegicus [21]): 5.07% | Ratio [23]: 2.19% | Ratio [26]: 0.167% | ID (Rattus norvegicus [28]): 6.54%

ID/organ (Rattus norvegicus [14]): 0.13% | ID/organ (Rattus norvegicus [16]): 0.315% | ID/organ (Rattus norvegicus [17]): 21.5% | ID/organ (Rattus norvegicus [22]): 6.25% | ID/organ (Rattus norvegicus [24]): 2.31% | ID/organ (Rattus norvegicus [25]): 2.75% | ID/organ (Rattus norvegicus [27]): 59.6%
Compound: CC(CO)NCCNC(C)C(C)O (stereo unspecified)
ID (Rattus norvegicus [12]): 59.6% | Ratio [29]: 1.22% | ID (Rattus norvegicus [5]): 6.88% | Ratio [30]: 0.18% | ID (Rattus norvegicus [31]): 3.33% | Ratio [32]: 1.55%

Reference: ChEMBL document CHEMBL1124314, “Development of phosphonate derivatives of gadolinium chelates for NMR imaging of calcified soft tissues” (J Med Chem, 1989)
